Assay results from patent US20230087118A1, “IMIDAZO[1,2-a][sequence] DERIVATIVES AND THEIR USE IN THE TREATMENT OF DISEASE” (priority 2019, published 2023).
Structures can show the parent of a compound that is named as a salt.

molecular target: T1, IRAK4 (Homo sapiens, UniProt Q9NWZ3); experiment: biochemical; settings: not given
T1 sequence (Q9NWZ3 1-460): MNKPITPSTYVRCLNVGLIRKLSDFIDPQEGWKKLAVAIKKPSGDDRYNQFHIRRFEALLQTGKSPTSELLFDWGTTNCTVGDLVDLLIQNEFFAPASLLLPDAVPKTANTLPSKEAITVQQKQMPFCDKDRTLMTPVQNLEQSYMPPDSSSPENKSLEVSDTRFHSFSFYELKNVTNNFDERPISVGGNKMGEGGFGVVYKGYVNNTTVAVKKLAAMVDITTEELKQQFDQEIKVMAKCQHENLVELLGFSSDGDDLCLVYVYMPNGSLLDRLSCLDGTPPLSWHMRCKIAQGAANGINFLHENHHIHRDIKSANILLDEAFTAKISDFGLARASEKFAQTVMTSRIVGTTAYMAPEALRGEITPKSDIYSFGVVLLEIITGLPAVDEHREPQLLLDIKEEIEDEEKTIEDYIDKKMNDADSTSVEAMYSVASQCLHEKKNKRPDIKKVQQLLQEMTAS

Row | SMILES | IC50
1 | COc1c(C(=O)Nc2cccc(C(F)F)n2)cn2cc(C34COC(C)(C3)C4)nc2c1C [Example 290, N-(6-(difluoromethyl)pyridin-2-yl)-7-methoxy-8-methyl-2-(1-methyl-2-oxabicyclo[2.1.1]hexan-4-yl)imidazo[1,2-a]pyridine-6-carboxamide] | 0.0276 µM
2 | COc1ncccc1NC(=O)c1cn2cc(C34COC(C)(C3)C4)nc2c(C)c1OC [Example 291, 7-Methoxy-N-(2-methoxypyridin-3-yl)-8-methyl-2-(1-methyl-2-oxabicyclo[2.1.1]hexan-4-yl)imidazo[1,2-a]pyridine-6-carboxamide] | 0.0125 µM
3 | COc1cc2nc(C34COC(C)(C3)C4)cn2cc1C(=O)Nc1cccc(C(F)F)n1 [Example 293, N-(6-(difluoromethyl)pyridin-2-yl)-7-methoxy-2-(1-methyl-2-oxabicyclo[2.1.1]hexan-4-yl)imidazo[1,2-a]pyridine-6-carboxamide] | 0.0028 µM
4 | CC(C)Oc1cc2nc(C(F)(F)F)cn2cc1C(=O)Nc1cccc(C(F)F)n1 [Example 294, N-(6-(difluoromethyl)pyridin-2-yl)-7-isopropoxy-2-(trifluoromethyl)imidazo[1,2-a]pyridine-6-carboxamide] | 0.0056 µM
5 | COc1ccn2ncc(NC(=O)c3cn4cc(C56COC(C)(C5)C6)nc4cc3OC(C)C)c2n1 [Example 300, 7-Isopropoxy-N-(5-methoxypyrazolo[1,5-a]pyrimidin-3-yl)-2-(1-methyl-2-oxabicyclo[2.1.1]hexan-4-yl)imidazo[1,2-a]pyridine-6-carboxamide] | 0.0022 µM
6 | COc1ccc2ncc(NC(=O)c3cn4cc(C56COC(C)(C5)C6)nc4cc3OC(C)C)n2n1 [Example 301, 7-Isopropoxy-N-(6-methoxyimidazo[1,2-b]pyridazin-3-yl)-2-(1-methyl-2-oxabicyclo[2.1.1]hexan-4-yl)imidazo[1,2-a]pyridine-6-carboxamide] | 0.0066 µM
7 | CC(C)Oc1c(C(=O)Nc2cnn3cccnc23)cn2cc(C34COC(C)(C3)C4)nc2c1F [Example 302, 8-Fluoro-7-isopropoxy-2-(1-methyl-2-oxabicyclo[2.1.1]hexan-4-yl)-N-(pyrazolo[1,5-a]pyrimidin-3-yl)imidazo[1,2-a]pyridine-6-carboxamide] | 0.0077 µM
8 | CC(C)Oc1c(C(=O)Nc2cccc(C(F)F)n2)cn2cc(C3CCOCC3)nc2c1F [Example 303, N-(6-(difluoromethyl)pyridin-2-yl)-8-fluoro-7-isopropoxy-2-(tetrahydro-2H-pyran-4-yl)imidazo[1,2-a]pyridine-6-carboxamide] | 0.0014 µM

The next lines start with the values.

Row | IC50 | SMILES
9 | 0.001 µM | CC(C)Oc1nc2nc(C34CC(C)(C3)OC4(C)C)cn2cc1C(=O)Nc1cnn2cc(F)cnc12 [Example 310, N-(6-fluoropyrazolo[1,5-a]pyrimidin-3-yl)-7-isopropoxy-2-(1,3,3-trimethyl-2-oxabicyclo[2.1.1]hexan-4-yl)imidazo[1,2-a]pyrimidine-6-carboxamide]
10 | 0.0036 µM | CC(C)Oc1cc2nc(C34COC(C)(C3)C4)cn2cc1C(=O)Nc1ccn(CC#N)n1 [Example 313, N-(1-(cyanomethyl)-1H-pyrazol-3-yl)-7-isopropoxy-2-(1-methyl-2-oxabicyclo[2.1.1]hexan-4-yl)imidazo[1,2-a]pyridine-6-carboxamide]
11 | 0.0258 µM | COCCn1ccc(NC(=O)c2cn3cc(C45COC(C)(C4)C5)nc3cc2OC(C)C)n1 [Example 314, 7-Isopropoxy-N-(1-(2-methoxyethyl)-1H-pyrazol-3-yl)-2-(1-methyl-2-oxabicyclo[2.1.1]hexan-4-yl)imidazo[1,2-a]pyridine-6-carboxamide]

same assay, conditions: IRAK4 Biochemical Assay (1 mM ATP, 2 h) IC50 (μM), 1 mM ATP, 2 h, 100 pM IRAK4

Row | SMILES | IC50
12 | CC(C)Oc1cc2nc(C34COC(CF)(C3)C4)cn2cc1C(=O)Nc1cccc(C(F)F)n1 [Example 289, N-(6-(difluoromethyl)pyridin-2-yl)-2-(1-(fluoromethyl)-2-oxabicyclo[2.1.1]hexan-4-yl)-7-isopropoxyimidazo[1,2-a]pyridine-6-carboxamide] | 0.0002 µM
13 | Cc1cnc2c(NC(=O)c3cn4cc(C56COC(C)(C5)C6)nc4c(F)c3OC(C)C)cnn2c1 [Example 292, 8-Fluoro-7-isopropoxy-2-(1-methyl-2-oxabicyclo[2.1.1]hexan-4-yl)-N-(6-methylpyrazolo[1,5-a]pyrimidin-3-yl)imidazo[1,2-a]pyridine-6-carboxamide trifluoroacetate] | 0.0026 µM
14 | CC(C)Oc1cc2nc(C34COC(C)(C3)C4)cn2cc1C(=O)Nc1nccc(C(F)F)n1 [Example 295, N-(4-(difluoromethyl)pyrimidin-2-yl)-7-isopropoxy-2-(1-methyl-2-oxabicyclo[2.1.1]hexan-4-yl)imidazo[1,2-a]pyridine-6-carboxamide trifluoroacetate] | 0.0097 µM
15 | CC(C)Oc1cc2nc(C34COC(C)(C3)C4)cn2cc1C(=O)Nc1cccc(C2CC2)n1 [Example 296, N-(6-cyclopropylpyridin-2-yl)-7-isopropoxy-2-(1-methyl-2-oxabicyclo[2.1.1]hexan-4-yl)imidazo[1,2-a]pyridine-6-carboxamide trifluoroacetate] | 0.0011 µM
16 | CC(C)Oc1cc2nc(C34COC(C)(C3)C4)cn2cc1C(=O)Nc1ccn(C)n1 [Example 297, 7-Isopropoxy-N-(1-methyl-1H-pyrazol-3-yl)-2-(1-methyl-2-oxabicyclo[2.1.1]hexan-4-yl)imidazo[1,2-a]pyridine-6-carboxamide trifluoroacetate] | 0.0048 µM
17 | CC(C)Oc1cc2nc(C34COC(C)(C3)C4)cn2cc1C(=O)Nc1cc2ccccn2n1 [Example 298, 7-Isopropoxy-2-(1-methyl-2-oxabicyclo[2.1.1]hexan-4-yl)-N-(pyrazolo[1,5-a]pyridin-2-yl)imidazo[1,2-a]pyridine-6-carboxamide trifluoroacetate] | 0.063 µM
18 | CC(C)Oc1cc2nc(C34COC(C)(C3)C4)cn2cc1C(=O)Nc1cnn2cccnc12 [Example 299, 7-Isopropoxy-2-(1-methyl-2-oxabicyclo[2.1.1]hexan-4-yl)-N-(pyrazolo[1,5-a]pyrimidin-3-yl)imidazo[1,2-a]pyridine-6-carboxamide trifluoroacetate] | 0.0005 µM
19 | COc1ncccc1NC(=O)c1cn2cc(C34COC(C)(C3)C4)nc2nc1OC(C)C [Example 305, 7-Isopropoxy-N-(2-methoxypyridin-3-yl)-2-(1-methyl-2-oxabicyclo[2.1.1]hexan-4-yl)imidazo[1,2-a]pyrimidine-6-carboxamide trifluoroacetate] | 0.0005 µM
20 | COc1ncc(F)cc1NC(=O)c1cn2cc(C34COC(C)(C3)C4)nc2nc1OC(C)C [Example 306, N-(5-fluoro-2-methoxypyridin-3-yl)-7-isopropoxy-2-(1-methyl-2-oxabicyclo[2.1.1]hexan-4-yl)imidazo[1,2-a]pyrimidine-6-carboxamide trifluoroacetate] | 0.0031 µM
21 | CC(C)Oc1nc2nc(C34COC(C)(C3)C4)cn2cc1C(=O)Nc1cnn2cccnc12 [Example 307, 7-Isopropoxy-2-(1-methyl-2-oxabicyclo[2.1.1]hexan-4-yl)-N-(pyrazolo[1,5-a]pyrimidin-3-yl)imidazo[1,2-a]pyrimidine-6-carboxamide] | 0.0005 µM

Next, values leading:

Row | IC50 | SMILES
22 | 0.002 µM | COc1ccc2ncc(NC(=O)c3cn4cc(C56COC(C)(C5)C6)nc4nc3OC(C)C)n2n1 [Example 308, 7-Isopropoxy-N-(6-methoxyimidazo[1,2-b]pyridazin-3-yl)-2-(1-methyl-2-oxabicyclo[2.1.1]hexan-4-yl)imidazo[1,2-a]pyrimidine-6-carboxamide trifluoroacetate]
23 | 0.0299 µM | CC(C)Oc1nc2nc(C34COC(C)(C3)C4)cn2cc1C(=O)Nc1cnn2ccc(C(F)F)nc12 [Example 309, N-(5-(difluoromethyl)pyrazolo[1,5-a]pyrimidin-3-yl)-7-isopropoxy-2-(1-methyl-2 oxabicyclo[2.1.1]hexan-4-yl)imidazo[1,2-a]pyrimidine-6-carboxamide trifluoroacetate]
24 | 0.0014 µM | Cc1cnc2c(NC(=O)c3cn4cc(C56CC(C)(C5)OC6(C)C)nc4nc3OC(C)C)cnn2c1 [Example 311, 7-Isopropoxy-N-(6-methylpyrazolo[1,5-a]pyrimidin-3-yl)-2-(1,3,3-trimethyl-2-oxabicyclo[2.1.1]hexan-4-yl)imidazo[1,2-a]pyrimidine-6-carboxamide trifluoroacetate]
25 | 0.0021 µM | CC12CC(c3cn4cc(C(=O)Nc5cccc(C(F)F)n5)c(OC5CC5)nc4n3)(CO1)C2 [Example 312, 7-Cyclopropoxy-N-(6-(difluoromethyl)pyridin-2-yl)-2-(1-methyl-2-oxabicyclo[2.1.1]hexan-4-yl)imidazo[1,2-a]pyrimidine-6-carboxamide trifluoroacetate]
26 | 0.0045 µM | CC(C)Oc1cc2nc(C34COC(C)(C3)C4)cn2cc1C(=O)Nc1ccn(C2CCCC2)n1 [Example 315, N-(1-cyclopentyl-1H-pyrazol-3-yl)-7-isopropoxy-2-(1-methyl-2-oxabicyclo[2.1.1]hexan-4-yl)imidazo[1,2-a]pyridine-6-carboxamide trifluoroacetate]
27 | 0.005 µM | CC(C)Oc1cc2nc(C34COC(C)(C3)C4)cn2cc1C(=O)Nc1cnn(C)n1 [Example 316, 7-Isopropoxy-N-(2-methyl-2H-1,2,3-triazol-4-yl)-2-(1-methyl-2-oxabicyclo[2.1.1]hexan-4-yl)imidazo[1,2-a]pyridine-6-carboxamide trifluoroacetate]
28 | 0.022 µM | CC(C)Oc1cc2nc(C34COC(C)(C3)C4)cn2cc1C(=O)Nc1ccno1 [Example 317, 7-Isopropoxy-N-(isoxazol-5-yl)-2-(1-methyl-2-oxabicyclo[2.1.1]hexan-4-yl)imidazo[1,2-a]pyridine-6-carboxamide trifluoroacetate]
